The nature of series [1]: retention time on BEH HILIC column (20 min gradient, 0.4 mL/min); higher = later elution. The following applies: LC: HILIC. On the procedure: (§1)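 Reference standards (20-100 uM) were separated by HILIC UPLC (BEH HILIC, 45 °C): acidic pH 3.0 ammonium formate/formic acid for ESI+ and basic pH 9.0 ammonium acetate/ammonia for ESI-. They were analysed on a Synapt G2-Si traveling-wave IMS-QTOF with nitrogen drift gas (WH 30 V; WV 800 m/s in ESI+ and 1000 m/s in ESI-).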

Series [2] can be described thus: collision cross section (TWIMS, N2) of ion [M-H]-; higher = larger gas-phase ion cross section. To be noted: ionization: ESI negative; LC: HILIC, pH 9.0 ammonium acetate. Here is the method: as §1
A short description of series [3]: collision cross section (TWIMS, N2) of ion [M+H]+; higher = larger gas-phase ion cross section. The following applies: ionization: ESI positive; LC: HILIC, pH 3.0 ammonium formate. On the procedure: as §1
[4] abbreviates: ionization: ESI negative, pH 9.0 ammonium acetate.
The mark [5] stands for this setting: ionization: ESI positive, pH 3.0 ammonium formate.

Structures are written as SMILES.

In the case of `NCCS(=O)(=O)O` [Taurine], the “retention time on BEH HILIC column” value in series [1] (setting [4]) was 6.14 min; in series [1] (setting [5]) it was 6 min. Also, the collision cross section is 119.39 Å² in series [2] and 126.38 Å² in series [3].
Consider `O=C(O)C(O)CCO` (stereo not drawn) [2,4-dihydroxybutyric acid], for which the “retention time on BEH HILIC column” value in series [1] (setting [4]) came to 4.91 min. This compound showed a collision cross section in series [2] of 119.85 Å².
For `O=P(O)(O)O[C@H]1O[C@H](CO)[C@@H](O)[C@H](O)[C@H]1O` [Glucose 1-phosphate], in that order: 9.95 min and 147.62 Å².
Take `CCCCC/C=C\C/C=C\C/C=C\C/C=C\CCCC(=O)O` [Arachidonic acid]: the figures for the “retention time on BEH HILIC column” value in series [1] (setting [4]) and in series [1] (setting [5]) were 0.72 min and 0.77 min, respectively. The collision cross section worked out at 186.98 Å² in series [2] and 178.98 Å² in series [3].
For `O=C1CC[C@@H](C(=O)O)N1` [Pyroglutamic acid], in that order: 5.48 min, 6.77 min, 123.74 Å² and 126.02 Å².
With `Nc1ncnc2c1ncn2[C@@H]1O[C@H](COP(=O)(O)OP(=O)(O)OP(=O)(O)O)[C@@H](O)[C@H]1O` [ATP], the “retention time on BEH HILIC column” value in series [1] (setting [4]) is 12.3 min. This compound displayed a collision cross section in series [2] of 190.77 Å².
With `CCCCCCCCC(=O)OC` [Methyl nonanoate], the “retention time on BEH HILIC column” value in series [1] (setting [4]) and in series [1] (setting [5]) was 1.03 min in each case. Further, the results for the collision cross section in series [2] and in series [3] were 144.8 Å² and 148.93 Å², respectively.
Take `NCCCCNCCCN` [Spermidine]: the “retention time on BEH HILIC column” value in series [1] (setting [5]) came out at 12.7 min. The collision cross section in series [3] was determined as 135.15 Å².
For `CC(C)C[C@H](N)C(=O)O` [L-leucine], the “retention time on BEH HILIC column” value in series [1] (setting [4]) turned out to be 6.46 min; in series [1] (setting [5]), 6.26 min. Moreover, the collision cross section in series [2] is on record as 131.1 Å²; in series [3], 131.44 Å².
For `Nc1nc(=O)c2[nH]cnc2[nH]1` [Guanine], in that order: 3.65 min, 3.62 min, 125.12 Å² and 128.49 Å².
For `O=c1[nH]c(=O)c2[nH]c(=O)[nH]c2[nH]1` [Uric acid], in that order: 5.34 min, 3.02 min, 125.59 Å² and 133.36 Å².
For `NCCCC[C@H](N)C(=O)O` [L-lysine], in that order: 11.6 min, 11.3 min, 135.63 Å² and 131.69 Å².
On to `CCCC(=O)O` [Butyric acid], for which the “retention time on BEH HILIC column” value in series [1] (setting [4]) came out at 3.72 min. Besides, the collision cross section in series [2] is on record as 122.31 Å².
For `N[C@@H](CC(=O)O)C(=O)O` [L-aspartic acid], in that order: 11.5 min and 120.3 Å².
The like results for `C[C@@H](O)CC(=O)O` [3-hydroxybutyric acid] were, in that order, 0.97 min and 107.41 Å².
For `CCCCC(C)C(=O)O` (stereo not drawn) [2-methylhexanoic acid], in that order: 0.8 min and 134.11 Å².
Take `CC[C@H](O)C(=O)O` [2-hydroxybutyric acid]: the “retention time on BEH HILIC column” value in series [1] (setting [4]) is 1.95 min. For the same compound, the collision cross section in series [2] is listed as 119.98 Å².
Take `O=P(O)(O)OC[C@H]1O[C@H](O)[C@H](O)[C@@H]1O` [D-ribose 5-phosphate]: the “retention time on BEH HILIC column” value in series [1] (setting [4]) worked out at 9.22 min. Also, in series [2], the collision cross section was 139.6 Å².
The like results for `CC(O)C(C)C(=O)O` (stereo not drawn) [3-hydroxy-2-methylbutanoic acid] were, in that order, 1.1 min and 124.78 Å².
For `O=C(O)CCC(=O)O` [Succinic acid], in that order: 1.5 min and 118.44 Å².
Regarding `CC(C)CC(=O)C(=O)O` [Ketoleucine], the “retention time on BEH HILIC column” value in series [1] (setting [4]) is 1.93 min. For the same compound, in series [2], the collision cross section was determined as 128.21 Å².

Values taken from the supplement of paper PMC11127212.
